Data: patent US11046694B2, “Compounds and methods for treating bacterial infections” (Entasis Therapeutics, Inc., priority 2018, dated 2021)
Structures can show the parent of a compound that is named as a salt.

How the values were obtained:
[1] = target: P. aeruginosa PBP1a (Pseudomonas aeruginosa, UniProt Q07806); assay type: biochemical; conditions: P. aeruginosa PBP1a 60 nM, BOCILLIN FL 30 nM, pH 7.0
[2] = target: T1, P. aeruginosa PBP2 (Pseudomonas aeruginosa, UniProt Q9X6V3); assay type: biochemical; conditions: P. aeruginosa PBP2 300 nM, BOCILLIN FL 30 nM, pH 6.2
T1 sequence (Q9X6V3 1-646): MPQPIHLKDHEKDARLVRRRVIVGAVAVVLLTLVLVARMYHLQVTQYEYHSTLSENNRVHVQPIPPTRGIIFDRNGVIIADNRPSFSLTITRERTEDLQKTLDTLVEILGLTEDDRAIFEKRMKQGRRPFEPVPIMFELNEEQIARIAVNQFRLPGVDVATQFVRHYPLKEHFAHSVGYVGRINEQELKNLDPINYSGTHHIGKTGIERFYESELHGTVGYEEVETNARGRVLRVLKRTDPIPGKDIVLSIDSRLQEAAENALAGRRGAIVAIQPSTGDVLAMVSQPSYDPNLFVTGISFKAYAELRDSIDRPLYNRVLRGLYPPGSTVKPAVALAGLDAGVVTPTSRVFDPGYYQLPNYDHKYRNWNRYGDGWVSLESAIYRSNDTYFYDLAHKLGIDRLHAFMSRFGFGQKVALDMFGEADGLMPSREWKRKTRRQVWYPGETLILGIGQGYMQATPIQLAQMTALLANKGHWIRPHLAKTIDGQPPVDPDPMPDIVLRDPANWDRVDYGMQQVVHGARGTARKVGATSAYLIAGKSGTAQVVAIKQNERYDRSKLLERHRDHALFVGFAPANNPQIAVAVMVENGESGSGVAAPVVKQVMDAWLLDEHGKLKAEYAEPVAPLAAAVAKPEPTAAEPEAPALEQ

[3] = target: P. aeruginosa PBP3 (Pseudomonas aeruginosa, UniProt G3XD46); assay type: biochemical; conditions: P. aeruginosa PBP3 60 nM, BOCILLIN FL 30 nM, pH 7.0
[4] = tested on: P. aeruginosa WT (PAO1); assay: MIC, CLSI broth microdilution, P. aeruginosa; assay type: cell-based; conditions: Pseudomonas aeruginosa, PAO1; CLSI broth microdilution; read-out: P. aeruginosa WT (PAO1) MIC
[5] = tested on: E. coli (ATCC25922); assay: MIC against E. coli; conditions: Escherichia coli, ATCC25922, read-out: E. coli MIC (ATCC25922) (mg/L)
[6] = tested on: A. baumannii (ARC3495); assay: MIC against A. baumannii; conditions: Acinetobacter baumannii, read-out: A. baumannii MIC (ARC3495) (mg/L)
[7] = tested on: K. pneumoniae (ATCC700603); assay: MIC against K. pneumoniae; conditions: Klebsiella pneumoniae, ATCC700603, read-out: K. pneumoniae MIC (ATCC700603)
[8] = tested on: B. pseudomallei; assay: microbe, parasite or virus in culture; conditions: Burkholderia pseudomallei, read-out: MIC against B. pseudomallei
[9] = tested on: B. mallei; assay: microbe, parasite or virus in culture; conditions: Burkholderia mallei, read-out: MIC against B. mallei
[10] = tested on: F. tularensis; assay: microbe, parasite or virus in culture; conditions: Francisella tularensis, read-out: MIC against F. tularensis
[11] = tested on: Y. pestis; assay: microbe, parasite or virus in culture; conditions: Yersinia pestis, read-out: MIC against Y. pestis
[12] = tested on: B. anthracis; assay: microbe, parasite or virus in culture; conditions: Bacillus anthracis, read-out: MIC against B. anthracis

P. aeruginosa PBP1a, sequence (Q07806 whole entry): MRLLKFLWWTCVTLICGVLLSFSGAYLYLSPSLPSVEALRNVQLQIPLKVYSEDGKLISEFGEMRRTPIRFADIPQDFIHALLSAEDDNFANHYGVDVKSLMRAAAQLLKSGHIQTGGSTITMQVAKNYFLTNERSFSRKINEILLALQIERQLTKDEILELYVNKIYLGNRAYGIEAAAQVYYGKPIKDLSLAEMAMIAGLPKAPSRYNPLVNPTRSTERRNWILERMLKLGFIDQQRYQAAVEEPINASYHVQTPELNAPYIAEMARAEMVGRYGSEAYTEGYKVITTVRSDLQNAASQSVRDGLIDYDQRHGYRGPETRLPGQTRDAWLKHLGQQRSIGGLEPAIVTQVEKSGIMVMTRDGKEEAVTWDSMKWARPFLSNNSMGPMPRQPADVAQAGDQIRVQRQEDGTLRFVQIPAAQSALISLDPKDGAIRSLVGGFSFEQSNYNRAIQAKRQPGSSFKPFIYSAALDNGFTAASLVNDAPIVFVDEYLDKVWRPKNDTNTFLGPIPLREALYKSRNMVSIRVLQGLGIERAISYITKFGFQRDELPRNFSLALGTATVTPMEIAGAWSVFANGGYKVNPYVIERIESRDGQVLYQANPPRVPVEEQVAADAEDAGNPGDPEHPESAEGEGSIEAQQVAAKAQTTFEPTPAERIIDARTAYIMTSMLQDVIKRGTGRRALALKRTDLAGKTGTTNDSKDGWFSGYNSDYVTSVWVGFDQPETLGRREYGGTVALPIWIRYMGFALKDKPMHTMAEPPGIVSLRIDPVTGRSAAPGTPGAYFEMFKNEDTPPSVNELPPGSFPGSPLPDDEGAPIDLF
P. aeruginosa PBP3, sequence (G3XD46 whole entry): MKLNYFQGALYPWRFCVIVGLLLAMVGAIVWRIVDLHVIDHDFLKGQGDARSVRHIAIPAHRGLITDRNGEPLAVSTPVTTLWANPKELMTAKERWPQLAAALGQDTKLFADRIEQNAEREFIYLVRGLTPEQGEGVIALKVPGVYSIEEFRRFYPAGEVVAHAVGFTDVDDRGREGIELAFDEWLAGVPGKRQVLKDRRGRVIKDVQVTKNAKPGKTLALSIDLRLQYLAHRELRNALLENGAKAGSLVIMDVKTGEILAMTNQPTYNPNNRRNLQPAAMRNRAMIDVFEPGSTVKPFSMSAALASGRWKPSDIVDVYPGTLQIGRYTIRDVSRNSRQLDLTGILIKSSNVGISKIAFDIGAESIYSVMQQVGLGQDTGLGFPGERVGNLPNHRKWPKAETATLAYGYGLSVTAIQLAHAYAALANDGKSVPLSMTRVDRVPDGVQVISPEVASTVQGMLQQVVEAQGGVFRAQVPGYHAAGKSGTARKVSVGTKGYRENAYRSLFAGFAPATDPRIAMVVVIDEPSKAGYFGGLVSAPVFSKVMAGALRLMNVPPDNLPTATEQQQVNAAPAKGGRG

SMILES | PBP1a acylation rate, k(on) (M^−1 · s^−1) [1] | PBP2 acylation rate, k(on) (M^−1 · s^−1) [2] | PBP3 acylation rate, k(on) (M^−1 · s^−1) [3] | MIC [4] [µg/mL] | MIC [5] [mg/L] | MIC [6] [mg/L] | MIC [7] [µg/mL] | MIC [8] [µg/mL] | MIC [9] [µg/mL] | MIC [10] [µg/mL] | MIC [11] [µg/mL] | MIC [12] [µg/mL]
CN/C(=N\O)[C@@H]1c2c(cnn2C)[C@@H]2CN1C(=O)N2OS(=O)(=O)O (stereo in doubt) [Example 40, Sodium (4R*,8S*)-8-((Z)—N′-hydroxy-N-methylcarbamimidoyl)-1-methyl-6-oxo-4,8-dihydro-1H-4,7-methanopyrazolo[3,4-e][1,3]diazepin-5(6H)-yl hydrogen sulfate] | ** (** represents a k(on) of 100 to 10,000 M^−1 · s^−1) | * (* represents a k(on) < 100 M^−1 · s^−1) | *** (*** represents a k(on) > 10,000 M^−1 · s^−1) | < 8 | < 8 | < 8 | < 8 | < 4 | < 4 | < 4 | < 4 | < 4
Cn1ncc2c1[C@@H](c1noc(=O)n1C)N1C[C@@H]2N(OS(=O)(=O)O)C1=O [Example 66, ((4R,8S)-1-methyl-8-(4-methyl-5-oxo-4,5-dihydro-1,2,4-oxadiazol-3-yl)-6-oxo-4,8-dihydro-1H-4,7-methanopyrazolo[3,4-e][1,3]diazepin-5(6H)-yl hydrogen sulfate] | ** (** represents a k(on) of 100 to 10,000 M^−1 · s^−1) | * (* represents a k(on) < 100 M^−1 · s^−1) | ** (** represents a k(on) of 100 to 10,000 M^−1 · s^−1) | > 16 | < 8 | > 16 | > 16 |  |  |  |  | 
